Measurements published in the NIST ThermoML archive (doi:10.1021/je800637t).

What was measured:
[1] = refractive index (Na D-line) (dimensionless); mn = molality of the nth substance listed, in mol/kg; settings: 100.8 kPa, Liquid, Standard Abbe refractometry, m2 = 0
[2] = mn = molality of the nth substance listed, in mol/kg; settings: 100.8 kPa, Liquid, m2 = 0; for viscosity: Cone and plate viscometry; for electrical conductivity: Kyoto model CM-117 conductivity meter

O [water] + O=[N+]([O-])[O-].[K+]
Settings | electrical conductivity, [2] [S/m] | refractive index, [1] | viscosity, [2] [mPa·s]
298.15 K | 0.000125 | 1.33277 | 0.891
313.15 K | 0.000164 | 1.3306 | 0.653

Settings | mass density [kg/m3]
[2], 313.15 K, Vibrating tube method | 992.15
